The values that follow come from PMC10177380 (Cancers, 2023).

In general, GI50 refers to the concentration that inhibits growth by half.

Data set [1] can be described thus: Selectivity cytotoxicity index (GI50 in MCF10A/GI50 in Du145). The settings on record: human, MCF10A normal breast cells and Du145 prostate cancer cells.
Details of data set [2]: method as in earlier work. The note with it: cited from earlier work.
The test system of data set [3] is non-tumour derived MCF10A breast line. More on the design: method as in PMID 36296713, PMID 36142383. The settings on record: cited from earlier work.
For data set [4], the system named is H460 lung. More on the design: method as in PMID 36296713, PMID 36142383. The settings on record: cited from earlier work.
For data set [5], the system named is BE2C neuroblastoma. Also noted: method as in PMID 36296713, PMID 36142383. The settings on record: cited from earlier work.
Data set [6] deals with PC3 (prostate carcinoma) tumour. Also noted: method as in PMID 18997969. The note with it: mice with PC3 tumour, cited from earlier work; for reduction in mean tumour mass: relative to vehicle-treated control.
In data set [7] the test system is SJG2 glioblastoma. More on the design: method as in PMID 36296713, PMID 36142383. The settings on record: cited from earlier work.
Data set [8] has as its system MIA pancreas. More on the design: method as in PMID 36296713, PMID 36142383. The note with it: cited from earlier work.
The test system of data set [9] is HT29 colon. Also noted: method as in PMID 36296713, PMID 36142383. The settings on record: cited from earlier work.
Data set [10] concerns A431 skin. More on the design: method as in PMID 36296713, PMID 36142383. The settings on record: cited from earlier work.
In data set [11] the test system is ADDP ovarian variant (cisplatin-resistant A2780 clone). Also noted: method as in PMID 36296713, PMID 36142383. The settings on record: cited from earlier work.
The subject of data set [12] is multiple cell lines. More on the design: method as in PMID 36296713, PMID 36142383. The settings on record: mean over all cell lines tested; cited from earlier work.
Data set [13] deals with U87 glioblastoma. More on the design: method as in PMID 36296713, PMID 36142383. The settings on record: cited from earlier work.
Data set [14] can be described thus: Stability in 10 mM PBS monitored by HPLC. In kind it is physicochemical. The settings on record: 10 mM PBS pH ~7.4, 36 h, room temperature and 37 °C. On the procedure:
The stability measurements for complexes 1–6 were determined by dissolving each complex in 10 mM aqueous phosphate buffered saline (PBS) solution at pH ~7.4 and incubated at room temperature and at 37 °C for 36 h. The experiments were monitored via HPLC.
Additional stability studies for 1–6 were undertaken using 10 mM PBS (~7.4 pH) as the aqueous solution, but without the presence of a reducing agent such as AsA. This was only to show whether the complexes would be stable in aqueous solution for long hours. Each complex was dissolved in PBS and incubated at room temperature and at 37 °C for 36 h. After the incubation, all samples were analysed through HPLC. […] After 36 h at room temperature, peak traces of platinum(IV) complexes and the platinum(II) precursors, as well as the dissociated ACE ligand, were present, as shown in Figure S77. […] From this, it was reasoned that the larger the ligand conjugated to our platinum(IV) scaffold (i.e., ACE), the more susceptible the resulting derivatives (4–6) are to reduction, as they reduce even without a reducing agent. This parallels the results from the reduction experiments above, where 4–6 were the quickest to reduce in the presence of AsA.

Data set [15] concerns MCF10A / Du145. As to the kind of experiment: Selectivity cytotoxicity index (GI50 in MCF10A/GI50 in Du145). The settings on record: GI50 in MCF10A/GI50 in Du145.
A short description of data set [16]: Lipophilicity by HPLC (log kw). It is filed as physicochemical. The note with it: extrapolated from log k versus % organic solvent. The method, then: Lipophilicity measurements were undertaken using HPLC, as previously described (see Supplementary Materials).
Lipophilicity measurements were undertaken using HPLC as previously described. The complexes were eluted at different isocratic ratios. The capacity factor (k) was calculated using the retention times of the complexes. A standard curve was generated to determine the log value of the capacity factor (log k), and this was performed by plotting the log k value at each isocratic ratio versus the percentage of the organic solvent used in solvent (Figure S61). This produced a linear expression that allowed for the extrapolation of log kw. Log kw is the measure of lipophilicity; therefore, a greater value corresponds to increased lipophilicity.

For data set [17], the system named is HT29 colon cells. Also noted: method as in PMID 36296713, PMID 36142383. The settings on record: cited from earlier work.
The subject of data set [18] is MCF10A / Du145. More on the design: method as in PMID 36296713, PMID 36142383. The settings on record: GI50 in MCF10A/GI50 in Du145, from data of previous studies; cited from earlier work.
Data set [19] has as its system peritoneal carcinomatosis. Also noted: method as in PMID 20535526. The settings on record: BD-IX rats, intravenous and intraperitoneal routes; cited from earlier work.

Read-outs that look alike come from different tables or passages of the source.

`COc1ccc2c(c1)c(CC(=O)OCC(=O)O)c(C)n2C(=O)c1ccc(Cl)cc1` [ACE, acemetacin]: the selectivity ratio in [1] amounted to 1. Moreover, the reported lipophilicity values in data set [2] is 4.49.

As to `N.N.[Cl][Pt][Cl]` [Cisplatin, cis-diamminedichloroplatinum(II)], the GI50 in data set [3] was 5200 ± 520 nM; in data set [4], 900 ± 200 nM; in [5], 1900 ± 200 nM; in data set [7] it was 400 ± 100 nM; in [8] it was 7500 ± 1300 nM; in data set [9], 11300 nM. The GI50 was 2400 ± 300 nM in data set [10], 28000 nM in data set [11], 5840 ± 610 nM in data set [12] and 3800 ± 1100 nM in [13]. In addition, the “reduction in mean tumour mass” value in data set [6] was “comparable reduction in mean tumour mass”.

Turning to `COc1ccc2cc([C@H](C)C(=O)[O][Pt+2]3([OH])[N]4C=CC=c5cc(C)c6c(c54)[N]3C=CC=6)ccc2c1.N[C@H]1CCCC[C@@H]1N` (stereo partly drawn) [Complex 2, [Pt^IV(5-Mephen)(SS-DACH)(NPX)(OH)]^2+], the “stability in PBS” value in data set [14] is “some traces of precursor platinum(IV) complexes and the dissociated NPX ligand were evident”.

Turning to `COc1ccc2c(c1)c(CC(=O)OCC(=O)[O][Pt-2]13([OH])([NH2+][C@H]4CCCC[C@@H]4[NH2+]1)[n+]1cccc4ccc5ccc[n+]3c5c41)c(C)n2C(=O)c1ccc(Cl)cc1` [Complex 4, [Pt^IV(phen)(SS-DACH)(ACE)(OH)]^2+], in data set [15], the “Selectivity Cytotoxicity Index (SCI)” value was 2.40. In [16], the “log kw Values” is 1.93.

For `COc1ccc2c(c1)c(CC(=O)OCC(=O)[O][Pt-2]13([OH])([NH2+][C@H]4CCCC[C@@H]4[NH2+]1)[n+]1cccc4cc(C)c5ccc[n+]3c5c41)c(C)n2C(=O)c1ccc(Cl)cc1` [Complex 5, [Pt^IV(5-Mephen)(SS-DACH)(ACE)(OH)]^2+], in data set [15], the “Selectivity Cytotoxicity Index (SCI)” value is 15.4. Besides, the “log kw Values” in data set [16] is recorded as 2.16.

For `Cc1cc2c3c4c1=CC=C[N]4[Pt+2][N]3C=CC=2.N[C@H]1CCCC[C@@H]1N` [Complex 5MESS], the GI50 in [3] is 30 ± 2 nM; in data set [4] it was 41 ± 5 nM; in data set [5] it was 270 ± 38 nM; in [7], 220 ± 10 nM; in [8], 48 ± 2 nM; in data set [9], 33 ± 4 nM. Further, the GI50 in data set [10] is 120 ± 25 nM; in [11], 34 ± 2 nM; in data set [12], 117 ± 12 nM; in data set [13], 320 ± 26 nM. The “ROS Production” value in data set [17] (HT29, 24 h) is recorded as 204 ± 4 RFU; in [17] (HT29, 48 h), 205 ± 3 RFU; in [17] (HT29, 72 h), 188 ± 3 RFU. In addition, in [18], the “Selectivity Cytotoxicity Index (SCI)” value is recorded as 1.36.

Take `COc1ccc2c(c1)c(CC(=O)OCC(=O)[O][Pt-2]13([OH])([NH2+][C@H]4CCCC[C@@H]4[NH2+]1)[n+]1cccc4c(C)c(C)c5ccc[n+]3c5c41)c(C)n2C(=O)c1ccc(Cl)cc1` [Complex 6, [Pt^IV(5,6-Me2phen)(SS-DACH)(ACE)(OH)]^2+]: the “Selectivity Cytotoxicity Index (SCI)” value in data set [15] came to 15.5. In [16], the “log kw Values” was 2.29.

For `Cc1c(C)c2cccnc2c2ncccc12.N[C@H]1CCCC[C@@H]1N.[Pt]` [Complex 56MESS, [Pt^II(5,6-Me2phen)(SS-DACH)]^2+], the GI50 in [3] is 16 ± 1 nM; in [4] it was 21 ± 2 nM; in [5] it was 59 ± 4 nM; in data set [7], 66 ± 22 nM; in [8], 13 ± 2 nM; in data set [9], 10 ± 1.6 nM. Further, the GI50 in data set [10] is 29 ± 1 nM; in [11], 13 ± 2 nM; in [12] it was 36 ± 10 nM; in data set [13] it was 35 ± 6.4 nM. Moreover, the toxicity result in data set [19] is “induced nephrotoxicity”. The tumour suppression response result in data set [19] is recorded as “did not demonstrate tumour suppression response”. Moreover, the “ROS Production” value in data set [17] (HT29, 24 h) is 240 ± 5 RFU; in data set [17] (HT29, 48 h), 218 ± 3 RFU; in [17] (HT29, 72 h), 255 ± 4 RFU. Besides, the “Selectivity Cytotoxicity Index (SCI)” value in [18] was 3.48.

Take `C1=C[N]2[Pt+2][N]3C=CC=c4ccc(c2c43)=C1.N[C@H]1CCCC[C@@H]1N` [PHENSS]: the GI50 in data set [3] is 300 ± 58 nM; in data set [4], 360 ± 35 nM; in data set [5], 380 ± 46 nM; in data set [7], 330 ± 66 nM; in data set [8], 200 ± 57 nM; in data set [9], 160 ± 45 nM. Moreover, the GI50 in [10] was 480 ± 170 nM; in data set [11] it was 190 ± 47 nM; in data set [12], 434 ± 110 nM; in data set [13], 980 ± 270 nM. Also, in data set [6], the “reduction in mean tumour mass” value is listed as “comparable reduction in mean tumour mass”. The toxic side effects result in data set [6] is listed as “did not elicit any toxic side effects”. Besides, the “ROS Production” value in data set [17] (HT29, 24 h) is 174 ± 2 RFU; in data set [17] (HT29, 48 h), 172 ± 9 RFU; in data set [17] (HT29, 72 h), 176 ± 7 RFU. For the same compound, the “Selectivity Cytotoxicity Index (SCI)” value in data set [18] is 3.00.
